Data taken from PubChem BioAssay AID220 (DTP/NCI, 2004).
“And” between values parts separate entries of the source, which are not always exact repeats. Equal entries are not always repeated. Inconclusive results are not listed.

Test system: CD8F1 mice, subcutaneous mammary adenocarcinoma, T/C%
Test: NCI In Vivo Anticancer Drug Screen. Data for tumor model Mammary Adenocarcinoma CD8F1 (subcutaneous) in CD8F1
Settings: higher = larger tumour
Procedure, shortened: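 Tumor-bearing mice, transplantable model; readout survival or tumor size; value = treated (T) / vehicle control (C).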

Question: Which T/C (endpoint: median tumor weight (est.), dose: 3.0 mg/kg/injection, schedule: Q07DX005 (ip), vehicle: saline) does the source give for NC(=O)c1ccc[n+](Cc2c(Cl)cccc2Cl)c1 here?
Answer: 171 % of control

Question: What about the T/C (endpoint: median tumor weight (est.), dose: 6.0 mg/kg/injection, schedule: Q07DX005 (ip), vehicle: saline) of the same compound?
Answer: 102 % of control

Question: And the T/C (endpoint: median tumor weight (est.), dose: 12.0 mg/kg/injection, schedule: Q07DX005 (ip), vehicle: saline)?
Answer: 211 % of control

Question: And the T/C (endpoint: median tumor weight (est.), dose: 48.0 mg/kg/injection, schedule: Q07DX005 (ip), vehicle: saline)?
Answer: 186 % of control

Question: How did the T/C (endpoint: median tumor weight change, dose: 1.87 mg/kg/injection, schedule: Q01DX001 (ip), vehicle: Klucel (hydroxypropylcellulose) (HPC)) turn out when C[C@H](N)C(=O)N[C@@H]1[C@H]2C(=C(O)C[C@@H](O)[C@@H]2O)C(=O)O[C@]1(C)C(Cl)Cl was run?
Answer: 101 % of control

Question: What about the T/C (endpoint: median tumor weight change, dose: 3.75 mg/kg/injection, schedule: Q01DX001 (ip), vehicle: Klucel (hydroxypropylcellulose) (HPC)) of the same compound?
Answer: 101 % of control

Question: For Cc1cc2nc3[nH]c4ccccc4c3nc2cc1C, which T/C (endpoint: median tumor weight (est.), dose: 12.5 mg/kg/injection, schedule: Q07DX005 (ip), vehicle: suspension in saline) is on record?
Answer: 88 % of control

Question: What about the T/C (endpoint: median tumor weight (est.), dose: 25.0 mg/kg/injection, schedule: Q07DX005 (ip), vehicle: suspension in saline) of the same compound?
Answer: 52 % of control

Question: What about the T/C (endpoint: median tumor weight (est.), dose: 50.0 mg/kg/injection, schedule: Q07DX005 (ip), vehicle: suspension in saline) of the same compound?
Answer: 73 % of control

Question: And the T/C (endpoint: median tumor weight (est.), dose: 100.0 mg/kg/injection, schedule: Q07DX005 (ip), vehicle: suspension in saline)?
Answer: 81 % of control

Question: And the T/C (endpoint: median tumor weight (est.), dose: 200.0 mg/kg/injection, schedule: Q07DX005 (ip), vehicle: suspension in saline)?
Answer: 88 % of control

Question: What about the T/C (endpoint: median tumor weight (est.), dose: 400.0 mg/kg/injection, schedule: Q07DX005 (ip), vehicle: suspension in saline) of the same compound?
Answer: 100 % of control

Question: How did the T/C (endpoint: median tumor weight (est.), dose: 3.12 mg/kg/injection, schedule: Q07DX005 (ip), vehicle: saline with Tween-80) turn out when Cc1cc(NCCCCCCCNc2cc(C)nc3cc(N)ccc23)c2ccc(N)cc2n1 was run?
Answer: 89 % of control

Question: What about the T/C (endpoint: median tumor weight (est.), dose: 6.25 mg/kg/injection, schedule: Q07DX005 (ip), vehicle: saline with Tween-80) of the same compound?
Answer: 111 % of control

Question: What about the T/C (endpoint: median tumor weight (est.), dose: 12.5 mg/kg/injection, schedule: Q07DX005 (ip), vehicle: saline with Tween-80) of the same compound?
Answer: 79 % of control

Question: And the T/C (endpoint: median tumor weight (est.), dose: 25.0 mg/kg/injection, schedule: Q07DX005 (ip), vehicle: saline with Tween-80)?
Answer: 26 % of control

Question: What about the T/C (endpoint: median tumor weight change, dose: 31.25 mg/kg/injection, schedule: Q01DX001 (ip), vehicle: saline with Tween-80) of the same compound?
Answer: 28 % of control and 45 % of control

Question: What about the T/C (endpoint: median tumor weight change, dose: 62.5 mg/kg/injection, schedule: Q01DX001 (ip), vehicle: saline with Tween-80) of the same compound?
Answer: 27 % of control

Question: C=C(C)C12CC(C)C34OC(CCCCCCCCCCC)(OC1C3C1OC1(CO)C(O)C1(O)C(=O)C(C)=CC14C)O2 (stereo not drawn) was tested. Which T/C (endpoint: median tumor weight (est.), dose: 100.0 micrograms/kg/injection, schedule: Q07DX005 (ip), vehicle: saline + alcohol) did it give?
Answer: 58 % of control

Question: And the T/C (endpoint: median tumor weight (est.), dose: 200.0 micrograms/kg/injection, schedule: Q07DX005 (ip), vehicle: saline + alcohol)?
Answer: 71 % of control

Question: And the T/C (endpoint: median tumor weight (est.), dose: 400.0 micrograms/kg/injection, schedule: Q07DX005 (ip), vehicle: saline + alcohol)?
Answer: 49 % of control

Question: What does the source list for O=c1[nH]cnc2[nH]ncc12?
Answer: T/C (endpoint: median tumor weight change, dose: 125.0 mg/kg/injection, schedule: Q01DX001 (ip), vehicle: suspension in saline): 104 % of control; T/C (endpoint: median tumor weight change, dose: 250.0 mg/kg/injection, schedule: Q01DX001 (ip), vehicle: suspension in saline): 71 % of control

Question: How did the T/C (endpoint: median tumor weight (est.), dose: 0.12 mg/kg/injection, schedule: Q07DX005 (ip), vehicle: saline) turn out when CCC1(O)CC2CN(CCc3c([nH]c4ccccc34)C(C(=O)OC)(c3cc4c(cc3OC)N(C)C3C(O)(C(N)=O)C(O)C5(CC)C=CCN6CCC43C65)C2)C1 (stereo not drawn) (tested in a mixture with another compound) was run?
Answer: 87 % of control

Question: And the T/C (endpoint: median tumor weight (est.), dose: 0.25 mg/kg/injection, schedule: Q07DX005 (ip), vehicle: saline)?
Answer: 74 % of control

Question: What about the T/C (endpoint: median tumor weight (est.), dose: 0.5 mg/kg/injection, schedule: Q07DX005 (ip), vehicle: saline) of the same compound?
Answer: 51 % of control

Question: What about the T/C (endpoint: median tumor weight (est.), dose: 1.0 mg/kg/injection, schedule: Q07DX005 (ip), vehicle: saline) of the same compound?
Answer: 16 % of control

Question: How did the T/C (endpoint: median tumor weight (est.), dose: 6.25 mg/kg/injection, schedule: Q07DX005 (ip), vehicle: Klucel (hydroxypropylcellulose) (HPC)) turn out when C[C@]12CC[C@@H]3c4ccc(O)cc4CC[C@H]3[C@@H]1CC[C@@H]2O was run?
Answer: 97 % of control

Question: And the T/C (endpoint: median tumor weight (est.), dose: 25.0 mg/kg/injection, schedule: Q07DX005 (ip), vehicle: Klucel (hydroxypropylcellulose) (HPC))?
Answer: 27 % of control

Question: How did the T/C (endpoint: median tumor weight change, dose: 125.0 mg/kg/injection, schedule: Q01DX001 (ip), vehicle: saline) turn out when NC(CCC(=O)NC(CS)C(=O)NCC(=O)O)C(=O)O (stereo not drawn) was run?
Answer: 74 % of control

Question: What about the T/C (endpoint: median tumor weight change, dose: 500.0 mg/kg/injection, schedule: Q01DX001 (ip), vehicle: saline) of the same compound?
Answer: 82 % of control

Question: Nc1ncnc2c1ccn2C1OC(CO)C(O)C1O (stereo not drawn) was tested. Which T/C (endpoint: mean tumor weight, dose: 0.25 mg/kg/injection, schedule: Q01DX009 (ip), vehicle: saline) did it give?
Answer: 162 % of control

Question: What about the T/C (endpoint: mean tumor weight, dose: 0.5 mg/kg/injection, schedule: Q01DX009 (ip), vehicle: saline) of the same compound?
Answer: 98 % of control

Question: What about the T/C (endpoint: mean tumor weight, dose: 1.0 mg/kg/injection, schedule: Q01DX009 (ip), vehicle: saline) of the same compound?
Answer: 114 % of control

Question: What about the T/C (endpoint: mean tumor weight, dose: 1.0 mg/kg/injection, schedule: Q07DX005 (ip), vehicle: saline) of the same compound?
Answer: 117 % of control

Question: And the T/C (endpoint: mean tumor weight, dose: 4.0 mg/kg/injection, schedule: Q07DX005 (ip), vehicle: saline)?
Answer: 361 % of control

Question: What about the T/C (endpoint: median tumor weight (est.), dose: 0.5 mg/kg/injection, schedule: Q07DX005 (ip), vehicle: Klucel (hydroxypropylcellulose) (HPC)) of the same compound?
Answer: 195 % of control

Question: What about the T/C (endpoint: median tumor weight (est.), dose: 8.0 mg/kg/injection, schedule: Q07DX005 (ip), vehicle: Klucel (hydroxypropylcellulose) (HPC)) of the same compound?
Answer: 114 % of control
